Source: paper PMC12638379, “An innovative approach to development of new pyrazolylquinolin-2-one hybrids as dual EGFR and BRAF^V600E inhibitors” (Molecular Diversity, 2025)
Read-outs that look alike come from different tables or passages of the source.

Test system: NCI 60 cancer cell lines
Test: NCI anticancer screening over a panel of 60 cancer cells, single concentration 10 µM
Type: cell-based, human
Details: Homo sapiens, read-out: % Growth Inhibition (GI %)
Method in brief: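 Run under the NCI Compound Evaluation Branch protocol, each compound was tested once at 10 µM. The panel comprised 60 cancer cell lines of diverse tissue origin, including leukemia, lung, colon, CNS, renal, ovarian, breast and prostate.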

`C/C(=N\Nc1ccc(C(=O)O)cc1)c1cnn(-c2cc(=O)[nH]c3ccc(Cl)cc23)c1C` [Compound 4i, (E)-4-(2-(1-(1-(6-chloro-2-oxo-1,2-dihydroquinolin-4-yl)-5-methyl-1H-pyrazol-4-yl)ethylidene)hydrazineyl)benzoic acid] gave an inhibition at 10 µM (786-0, Renal cancer 786-0, 10 μM) of under 5%, an inhibition at 10 µM (A498, Renal cancer A498, 10 μM) of under 5% and an inhibition at 10 µM (A549, Non-small cell lung cancer A549/ATCC, 10 μM) of under 5%. It also gave an inhibition at 10 µM (ACHN, Renal cancer ACHN, 10 μM) of under 5%, an inhibition at 10 µM (BT-549, Breast cancer BT-549, 10 μM) of under 5% and an inhibition at 10 µM (CAKI-1, Renal cancer CAKI-1, 10 μM) of 10.8%. For the same molecule, the inhibition at 10 µM (CCRF-CEM, Leukemia CCRF-CEM, 10 μM) was under 5%, the inhibition at 10 µM (COLO 205, Colon cancer COLO 205, 10 μM) was under 5% and the inhibition at 10 µM (DU-145, Prostate cancer DU-145, 10 μM) was under 5%. The inhibition at 10 µM (EKVX, Non-small cell lung cancer EKVX, 10 μM) was under 5%, the inhibition at 10 µM (HCC 2998, Colon cancer HCC-2998, 10 μM) was under 5% and the inhibition at 10 µM (HCT-15, Colon cancer HCT-15, 10 μM) was under 5%. The inhibition at 10 µM (HCT-116, Colon cancer HCT-116, 10 μM) was under 5%, the inhibition at 10 µM (HL-60, Leukemia HL-60(TB), 10 μM) was 5.88% and the inhibition at 10 µM (HOP-62, Non-small cell lung cancer HOP-62, 10 μM) was under 5%. It also gave an inhibition at 10 µM (HOP-92, Non-small cell lung cancer HOP-92, 10 μM) of 36.7%, an inhibition at 10 µM (HT-29, Colon cancer HT29, 10 μM) of under 5% and an inhibition at 10 µM (Hs-578T, Breast cancer HS 578T, 10 μM) of 6.25%. The inhibition at 10 µM (IGROV-1, Ovarian cancer IGROV1, 10 μM) was under 5%, the inhibition at 10 µM (K562, Leukemia K-562, 10 μM) was 7.48% and the inhibition at 10 µM (KM12, Colon cancer KM12, 10 μM) was under 5%. It also gave an inhibition at 10 µM (LOX IMVI, Melanoma LOX IMVI, 10 μM) of under 5%, an inhibition at 10 µM (Leukemia SR, 10 μM) of under 5% and an inhibition at 10 µM (MCF7, Breast cancer MCF7, 10 μM) of 8.38%. For the same molecule, the inhibition at 10 µM (MDA-MB-231, Breast cancer MDA-MB-231/ATCC, 10 μM) was 12.9%, the inhibition at 10 µM (MDA-MB-435, Melanoma MDA-MB-435, 10 μM) was under 5% and the inhibition at 10 µM (MDA-MB-468, Breast cancer MDA-MB-468, 10 μM) was under 5%. For the same molecule, the inhibition at 10 µM (MOLT-4, Leukemia MOLT-4, 10 μM) was under 5%, the inhibition at 10 µM (Melanoma M14, 10 μM) was under 5% and the inhibition at 10 µM (Melanoma MALM-3M, 10 μM) was 19.4%. For the same molecule, the inhibition at 10 µM (NCI-H23, Non-small cell lung cancer NCI-H23, 10 μM) was under 5%, the inhibition at 10 µM (NCI-H226, Non-small cell lung cancer NCI-H226, 10 μM) was under 5% and the inhibition at 10 µM (NCI-H322M, Non-small cell lung cancer NCI-H322M, 10 μM) was under 5%. The inhibition at 10 µM (NCI-H460, Non-small cell lung cancer NCI-H460, 10 μM) was under 5%, the inhibition at 10 µM (NCI-H522, Non-small cell lung cancer NCI-H522, 10 μM) was under 5% and the inhibition at 10 µM (NCI/ADR-RES, Ovarian cancer NCI/ADR-RES, 10 μM) was under 5%. It also gave an inhibition at 10 µM (OVCAR-3, Ovarian cancer OVCAR-3, 10 μM) of under 5%, an inhibition at 10 µM (OVCAR-4, Ovarian cancer OVCAR-4, 10 μM) of under 5% and an inhibition at 10 µM (OVCAR-5, Ovarian cancer OVCAR-5, 10 μM) of under 5%. The inhibition at 10 µM (OVCAR-8, Ovarian cancer OVCAR-8, 10 μM) was under 5%, the inhibition at 10 µM (Prostate cancer PC-3, 10 μM) was under 5% and the inhibition at 10 µM (RPMI-8226, Leukemia RPMI-8226, 10 μM) was under 5%. For the same molecule, the inhibition at 10 µM (RXF 393, Renal cancer RXF 393, 10 μM) was under 5%, the inhibition at 10 µM (SF-268, CNS Cancer SF-268, 10 μM) was under 5% and the inhibition at 10 µM (SF-295, CNS Cancer SF-295, 10 μM) was under 5%. The inhibition at 10 µM (SF-539, CNS Cancer SF-539, 10 μM) was under 5%, the inhibition at 10 µM (SK-MEL-2, Melanoma SK-MEL-2, 10 μM) was under 5% and the inhibition at 10 µM (SK-MEL-5, Melanoma SK-MEL-5, 10 μM) was under 5%. For the same molecule, the inhibition at 10 µM (SK-MEL-28, Melanoma SK-MEL-28, 10 μM) was under 5%, the inhibition at 10 µM (SK-OV-3, Ovarian cancer SK-OV-3, 10 μM) was 5.11% and the inhibition at 10 µM (SN12C, Renal cancer SN12C, 10 μM) was under 5%. The inhibition at 10 µM (SNB-19, CNS Cancer SNB-19, 10 μM) was under 5%, the inhibition at 10 µM (SNB-75, CNS Cancer SNB-75, 10 μM) was 5.56% and the inhibition at 10 µM (SW-620, Colon cancer SW-620, 10 μM) was under 5%. It also gave an inhibition at 10 µM (T47D, Breast cancer T-47D, 10 μM) of 6.23%, an inhibition at 10 µM (TK-10, Renal cancer TK-10, 10 μM) of under 5% and an inhibition at 10 µM (U-251, CNS Cancer U251, 10 μM) of under 5%. The inhibition at 10 µM (UACC-62, Melanoma UACC-62, 10 μM) was 6.04%, the inhibition at 10 µM (UACC-257, Melanoma UACC-257, 10 μM) was under 5% and the inhibition at 10 µM (UO-31, Renal cancer UO-31, 10 μM) was 29.1%.
